Measured values from patent US20210052705A1, “METHOD OF DRUG […] FOR PTH, PTHrP AND RELATED PEPTIDES” (Radius Health, Inc., priority 2011, published 2021).
Read-outs that look alike come from different tables or passages of the source. Blank lines part the entries; values can stand above or below the molecule they belong to.

Experiments:
[1] = set-up: AUCR: unit not given beside the values; conditions: in vivo
clinical = conditions: female, human, in vivo; for AUC(0-inf): AUC0-inf; for Tmax: Tmax (Median); for half-life: t1/2
in vivo [2] = conditions: rat, sc, 20 ug/kg
in vivo [3] = conditions: female, Sprague Dawley, rat, sc

- AUC0-inf/dose ([1]; 100 ug): 1.77 ± 0.869 pg·h/mL/µg
- AUC0-tau/dose ([1]; 100 ug): 1.77 ± 0.868 pg·h/mL/µg
- AUCR ([1]; 100 ug): 0.898 ± 0.0169
- CL/F ([1]; 100 ug): 666.2 ± 284.4 L/h
- AUC0-inf/dose ([1]; sc): 7.92 ± 2.83 pg·h/mL/µg
- AUC0-tau/dose ([1]; sc): 7.91 ± 2.83 pg·h/mL/µg
- Mean Dose Normalized AUC0-inf, SC Dose ([1]; sc): 7.92
- AUC(0-inf) (clinical; 100 ug): 0.177 ± 0.0869 ng·h/mL
- AUC(0-t) (clinical; 100 ug, AUC0-t): 0.154 ± 0.0693 ng·h/mL
- AUC (clinical; 100 ug, AUC0-tau): 0.177 ± 0.0868 ng·h/mL
- Cmax (clinical; 100 ug, Cmax): 0.317 ± 0.0806 ng/mL
- Tmax (clinical; 100 ug): 12.1 min
- Vd/F (clinical; 100 ug): 366 ± 128 L
- half-life (clinical; 100 ug): 24.1 ± 7.56 min
- AUC(0-inf) (clinical; 150 ug): 0.269 ± 0.265 ng·h/mL
- Tmax (clinical; 150 ug): 9.84 min
- half-life (clinical; 150 ug): 34.1 ± 28.3 min
- Tmax (clinical): 7.8 min
- Vd/F (clinical): 491 ± 208 L
- CL/F (clinical; sc): 2340 mL/min
- Tmax (clinical; sc): 25.3 min
- Vd/F (clinical; sc): 197 ± 86.2 L
- half-life (clinical; sc): 58.2 ± 11.1 min
- half-life (clinical): 28 ± 25 min
- CL/F (clinical; topical or ocular, 100 ug): 6710 mL/min
Compound: CC[C@H](C)[C@H](NC(=O)[C@H](CO)NC(=O)[C@H](CCCCN)NC(=O)CNC(=O)[C@H](CCCCN)NC(=O)[C@H](CC(=O)O)NC(=O)[C@H](Cc1cnc[nH]1)NC(=O)[C@H](CC(C)C)NC(=O)[C@H](CC(C)C)NC(=O)[C@H](CCC(N)=O)NC(=O)[C@H](Cc1cnc[nH]1)NC(=O)[C@H](CCC(=O)O)NC(=O)[C@H](CO)NC(=O)[C@@H](NC(=O)[C@H](C)N)C(C)C)C(=O)N[C@@H](CCC(N)=O)C(=O)N[C@@H](CC(=O)O)C(=O)N[C@@H](CC(C)C)C(=O)N[C@@H](CCCNC(=N)N)C(=O)N[C@@H](CCCNC(=N)N)C(=O)N[C@@H](CCCNC(=N)N)C(=O)N[C@@H](CCC(=O)O)C(=O)N[C@@H](CC(C)C)C(=O)N[C@@H](CC(C)C)C(=O)N[C@@H](CCC(=O)O)C(=O)N[C@@H](CCCCN)C(=O)N[C@@H](CC(C)C)C(=O)N[C@@H](CC(C)C)C(=O)NC(C)(C)C(=O)N[C@@H](CCCCN)C(=O)N[C@@H](CC(C)C)C(=O)N[C@@H](Cc1cnc[nH]1)C(=O)N[C@H](C(=O)N[C@@H](C)C(N)=O)[C@@H](C)O

- Cmax (in vivo [2]; Cmax): 8.9 ng/mL
- Tmax (in vivo [2]; Tmax): 10 min
- half-life (in vivo [2]; t1/2): 31 min
- level at 0.25 h (in vivo [3]): 0.0108 ± 0.0036 ng/mL
Compound: CC[C@H](C)[C@H](NC(=O)[C@H](CO)NC(=O)[C@H](CCCCN)NC(=O)CNC(=O)[C@H](CCCCN)NC(=O)[C@H](CC(=O)O)NC(=O)[C@H](Cc1cnc[nH]1)NC(=O)[C@H](CC(C)C)NC(=O)[C@H](CC(C)C)NC(=O)[C@H](CCC(N)=O)NC(=O)[C@H](Cc1cnc[nH]1)NC(=O)[C@H](CCC(=O)O)NC(=O)[C@H](CO)NC(=O)[C@@H](NC(=O)[C@H](C)N)C(C)C)C(=O)N[C@@H](CCC(N)=O)C(=O)N[C@@H](CC(=O)O)C(=O)N[C@@H](CC(C)C)C(=O)N[C@@H](CCCNC(=N)N)C(=O)N[C@@H](CCCNC(=N)N)C(=O)N[C@@H](CCCNC(=N)N)C(=O)N[C@@H](CCC(=O)O)C(=O)N[C@@H](CC(C)C)C(=O)N[C@@H](CC(C)C)C(=O)N[C@@H](CCC(=O)O)C(=O)N[C@@H](CCCCN)C(=O)N[C@@H](CC(C)C)C(=O)N[C@@H](CC(C)C)C(=O)NC(C)(C)C(=O)N[C@@H](CCCCN)C(=O)N[C@@H](CC(C)C)C(=O)N[C@@H](Cc1cnc[nH]1)C(=O)N[C@H](C(=O)N[C@@H](C)C(N)=O)[C@@H](C)O [reference SC]
